Converted amounts (≈) assume the structure as drawn. The source made the active and inactive calls. No cut-off for these calls is given here.
What was measured:
[1] = molecular target: T1, Piezo-type mechanosensitive ion channel component 1 (Homo sapiens, UniProt Q92508); assay: Agonist activity at human PIEZO1 overexpressing HEK293-A cells co-expressing mCherry-piezo1 assessed as fold change in calcium influx at 5 uM by fluo-3 based real-time flow cytometric analysis; type: cell-based
[2] = molecular target: T1, Piezo-type mechanosensitive ion channel component 1; assay: Agonist activity at human PIEZO1 overexpressing HEK293-A cells co-expressing mCherry-piezo1 assessed as fold change in calcium influx at 15 uM by fluo-3 based real-time flow cytometric analysis; type: cell-based
[3] = molecular target: T1, Piezo-type mechanosensitive ion channel component 1; assay: Agonist activity at human PIEZO1 overexpressing HEK293-A cells co-expressing mCherry-piezo1 assessed as fold change in calcium influx at 0.5 uM by fluo-3 based real-time flow cytometric analysis; type: cell-based
[4] = molecular target: T1, Piezo-type mechanosensitive ion channel component 1; assay: Agonist activity at human PIEZO1 overexpressing HEK293-A cells co-expressing mCherry-piezo1 assessed as fold change in calcium influx at 10 uM by fluo-3 based real-time flow cytometric analysis; type: cell-based
[5] = molecular target: T1, Piezo-type mechanosensitive ion channel component 1; assay: Agonist activity at human PIEZO1 overexpressing HEK293-A cells co-expressing mCherry-piezo1 assessed as fold change in calcium influx at 1 uM by fluo-3 based real-time flow cytometric analysis; type: cell-based
[6] = molecular target: T1, Piezo-type mechanosensitive ion channel component 1; assay: Agonist activity at human PIEZO1 overexpressing HEK293-A cells co-expressing mCherry-piezo1 assessed as fold change in calcium influx at 0.1 uM by fluo-3 based real-time flow cytometric analysis; type: cell-based
[7] = molecular target: T1, Piezo-type mechanosensitive ion channel component 1; assay: Agonist activity at human PIEZO1 overexpressing HEK293-A cells co-expressing mCherry-piezo1 assessed as fold change in calcium influx at 20 uM by fluo-3 based real-time flow cytometric analysis; type: cell-based
[8] = molecular target: T1, Piezo-type mechanosensitive ion channel component 1; assay: Agonist activity at human PIEZO1 overexpressing HEK293-A cells co-expressing mCherry-piezo1 assessed as fold change in calcium influx at 25 uM by fluo-3 based real-time flow cytometric analysis; type: cell-based
[9] = molecular target: T1, Piezo-type mechanosensitive ion channel component 1; assay: Agonist activity at human PIEZO1 overexpressing HEK293-A cells co-expressing mCherry-piezo1 assessed as induction of calcium influx by measuring maximum efficacy in fold change by fluo-3 based real-time flow cytometric analysis; type: cell-based; conditions: filed as agonist
[10] = molecular target: T1, Piezo-type mechanosensitive ion channel component 1; assay: Agonist activity at human PIEZO1 overexpressing HEK293-A cells co-expressing mCherry-piezo1 assessed as induction of calcium influx by fluo-3 based real-time flow cytometric analysis; type: cell-based
[11] = molecular target: T1, Piezo-type mechanosensitive ion channel component 1; assay: Agonist activity at PIEZO1 in human CD4+ T cell assessed as intracellular calcium influx measured for 30 mins by flow cytometry analysis; type: cell-based
[12] = Cytotoxicity against human PBMC cells assessed as decrease in cell viability at 0.1 to 5 uM incubated for 6 hrs by MTT assay; type: toxicity, cell-based; conditions: dose 0.1-5 µM
[13] = Cytotoxicity against human PBMC cells assessed as decrease in cell viability at 20 uM incubated for 24 hrs by MTT assay; type: toxicity, cell-based
[14] = molecular target: T1, Piezo-type mechanosensitive ion channel component 1; assay: Agonist activity at PIEZO1 in human CD4+ T cell assessed as fold increase in intracellular calcium influx measured for 30 mins by flow cytometry analysis; type: cell-based
[15] = Kinetic aqueous solubility of compound in PBS at pH 7.4 measured after 24 hrs by HPLC-UV analysis; type: physicochemical; conditions: read-out: Kinetic_solubility

T1 sequence (Q92508 whole entry): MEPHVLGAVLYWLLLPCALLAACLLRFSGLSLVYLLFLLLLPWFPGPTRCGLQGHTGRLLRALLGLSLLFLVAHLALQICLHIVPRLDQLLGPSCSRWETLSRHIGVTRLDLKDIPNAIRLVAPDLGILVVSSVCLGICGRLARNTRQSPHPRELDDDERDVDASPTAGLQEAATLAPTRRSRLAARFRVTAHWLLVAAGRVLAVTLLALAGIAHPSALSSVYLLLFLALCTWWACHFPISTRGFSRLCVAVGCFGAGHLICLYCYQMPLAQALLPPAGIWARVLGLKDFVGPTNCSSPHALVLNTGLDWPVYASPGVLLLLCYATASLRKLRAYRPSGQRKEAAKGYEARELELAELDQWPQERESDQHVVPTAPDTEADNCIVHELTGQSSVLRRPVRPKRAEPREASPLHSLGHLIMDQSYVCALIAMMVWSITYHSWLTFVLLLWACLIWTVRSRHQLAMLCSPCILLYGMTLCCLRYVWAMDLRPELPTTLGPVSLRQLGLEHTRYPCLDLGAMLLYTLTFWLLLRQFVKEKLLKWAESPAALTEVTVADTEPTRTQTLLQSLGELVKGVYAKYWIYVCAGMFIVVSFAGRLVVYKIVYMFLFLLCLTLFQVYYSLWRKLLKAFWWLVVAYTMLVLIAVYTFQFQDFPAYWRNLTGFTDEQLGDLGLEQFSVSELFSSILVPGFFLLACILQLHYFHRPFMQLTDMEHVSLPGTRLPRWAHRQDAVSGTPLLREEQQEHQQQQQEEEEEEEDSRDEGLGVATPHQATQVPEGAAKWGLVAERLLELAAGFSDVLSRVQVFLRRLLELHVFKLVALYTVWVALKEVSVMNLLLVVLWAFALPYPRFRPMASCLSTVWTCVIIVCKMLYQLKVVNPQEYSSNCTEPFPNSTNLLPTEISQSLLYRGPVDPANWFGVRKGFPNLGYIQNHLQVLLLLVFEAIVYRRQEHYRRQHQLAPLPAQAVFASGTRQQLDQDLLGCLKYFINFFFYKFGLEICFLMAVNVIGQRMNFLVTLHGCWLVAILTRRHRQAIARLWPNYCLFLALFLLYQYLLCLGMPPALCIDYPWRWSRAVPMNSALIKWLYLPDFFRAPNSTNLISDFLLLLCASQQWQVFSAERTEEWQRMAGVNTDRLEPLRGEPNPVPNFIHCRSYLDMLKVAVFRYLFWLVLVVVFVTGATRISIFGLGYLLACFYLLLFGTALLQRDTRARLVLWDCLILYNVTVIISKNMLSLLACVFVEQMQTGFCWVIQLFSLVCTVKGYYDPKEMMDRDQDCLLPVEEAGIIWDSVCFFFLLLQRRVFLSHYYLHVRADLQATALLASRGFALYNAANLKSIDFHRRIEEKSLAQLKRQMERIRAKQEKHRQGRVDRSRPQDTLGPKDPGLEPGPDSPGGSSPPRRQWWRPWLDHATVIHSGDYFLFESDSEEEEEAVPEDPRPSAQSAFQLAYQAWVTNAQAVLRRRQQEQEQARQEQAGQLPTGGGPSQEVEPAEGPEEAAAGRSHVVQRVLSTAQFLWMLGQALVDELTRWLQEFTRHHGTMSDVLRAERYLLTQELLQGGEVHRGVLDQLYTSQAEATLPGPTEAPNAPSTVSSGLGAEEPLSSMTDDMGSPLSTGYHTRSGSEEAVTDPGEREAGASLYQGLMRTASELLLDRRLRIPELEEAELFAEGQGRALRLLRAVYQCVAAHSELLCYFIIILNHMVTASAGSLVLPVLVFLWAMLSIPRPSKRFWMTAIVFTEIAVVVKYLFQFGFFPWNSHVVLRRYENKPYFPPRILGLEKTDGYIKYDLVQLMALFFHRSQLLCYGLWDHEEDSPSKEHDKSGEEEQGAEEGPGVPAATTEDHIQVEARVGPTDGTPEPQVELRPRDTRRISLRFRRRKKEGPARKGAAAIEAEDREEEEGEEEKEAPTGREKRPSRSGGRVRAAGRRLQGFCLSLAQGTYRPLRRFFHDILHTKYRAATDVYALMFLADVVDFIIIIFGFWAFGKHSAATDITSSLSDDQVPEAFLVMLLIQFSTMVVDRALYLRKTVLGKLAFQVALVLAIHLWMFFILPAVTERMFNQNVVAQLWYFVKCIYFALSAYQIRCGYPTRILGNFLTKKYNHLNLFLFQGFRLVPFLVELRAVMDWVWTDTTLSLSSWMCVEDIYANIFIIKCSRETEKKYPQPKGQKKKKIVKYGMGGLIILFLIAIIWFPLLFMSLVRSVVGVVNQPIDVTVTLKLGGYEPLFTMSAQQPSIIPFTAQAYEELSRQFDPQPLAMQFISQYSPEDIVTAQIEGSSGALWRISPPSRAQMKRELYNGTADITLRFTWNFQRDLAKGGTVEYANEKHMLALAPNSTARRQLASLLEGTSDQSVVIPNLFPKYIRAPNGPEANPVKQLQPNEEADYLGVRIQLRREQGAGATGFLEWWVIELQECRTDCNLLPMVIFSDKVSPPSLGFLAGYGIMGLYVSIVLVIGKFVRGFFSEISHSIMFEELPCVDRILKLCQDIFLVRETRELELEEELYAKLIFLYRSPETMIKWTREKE

Structure (SMILES)	fold change (FC) [1]	fold change (FC) [2]	fold change (FC) [3]	fold change (FC) [4]	fold change (FC) [5]	fold change (FC) [6]	fold change (FC) [7]	Activity [8]	fold change (FC) [9]	EC50 [10] [nM]	Activity [11]	Activity [12]	Activity [13]	fold change (FC) [14]	solubility kinetic at 24 h [15] [µM]
Clc1ccccc1CNc1nnc(-c2cnccn2)o1	< 1.2	< 1.2	< 1.2	< 1.2	< 1.2	< 1.2	< 1.2	–	–	–	–	–	–	–	–
Clc1cccc(Cl)c1CSc1nnc(-c2cnccn2)[nH]1	–	< 1.2	–	–	–	–	< 1.2	inactive	–	–	–	–	–	–	–
FC(F)(F)c1ccccc1CSc1nnc(-c2cnccn2)o1	< 1.2	> 1.2	< 1.2	> 1.2	< 1.2	< 1.2	> 1.2	–	1.35	2060	inactive	Non-Toxic	Non-Toxic	–	–
FC(F)(F)c1ccc(Br)c(CSc2nnc(-c3cnccn3)o2)c1	> 1.2	> 1.2	> 1.2	> 1.2	> 1.2	< 1.2	> 1.2	–	2.3	600	–	–	–	–	–
Clc1ccc(Cl)c(CSc2nnc(-c3cnccn3)o2)c1	< 1.2	> 1.2	< 1.2	> 1.2	< 1.2	< 1.2	> 1.2	–	1.25	570	–	–	–	–	–
Clc1cccc(CSc2nnc(-c3cnccn3)o2)c1Cl	–	–	–	–	–	< 1.2	< 1.2	–	–	–	–	–	–	–	–
Clc1ccccc1CSc1nnc(-c2cnccn2)o1	–	< 1.2	–	–	–	–	< 1.2	–	–	–	–	–	–	–	–
O=[N+]([O-])c1ccccc1CSc1nnc(-c2cnccn2)o1	–	< 1.2	–	–	–	–	< 1.2	–	–	–	–	–	–	–	–
FC(F)(F)c1ccc(Cl)cc1CSc1nnc(-c2cnccn2)o1	> 1.2	> 1.2	> 1.2	> 1.2	> 1.2	< 1.2	> 1.2	–	1.7	550	–	–	–	–	–
Fc1cccc(F)c1CSc1nnc(-c2cnccn2)o1	–	–	–	–	–	< 1.2	< 1.2	–	–	–	–	–	–	–	–
Fc1ccccc1CSc1nnc(-c2cnccn2)o1	–	< 1.2	–	–	–	–	< 1.2	–	–	–	–	–	–	–	–
FC(F)(F)c1cccc(Cl)c1CSc1nnc(-c2cnccn2)o1	> 1.2	> 1.2	> 1.2	> 1.2	> 1.2	> 1.2	> 1.2	–	2.6	400	–	Non-Toxic	Non-Toxic	> 2	26.7 (≈ 9.96 µg/mL)
FC(F)(F)c1ccc(Cl)c(CSc2nnc(-c3cnccn3)o2)c1	> 1.2	> 1.2	> 1.2	> 1.2	> 1.2	< 1.2	> 1.2	–	2.3	880	–	–	–	–	–
Clc1cccc(Cl)c1CSc1nnc(-c2cnccn2)s1	> 1.2	> 1.2	> 1.2	> 1.2	> 1.2	< 1.2	> 1.2	–	2.4	500	–	–	–	–	1.22 (≈ 0.433 µg/mL)
FC(F)(F)c1cccc(Br)c1CSc1nnc(-c2cnccn2)o1	> 1.2	> 1.2	> 1.2	> 1.2	> 1.2	> 1.2	> 1.2	–	2.7	460	–	–	–	–	–
Clc1cccc(Cl)c1CNc1nnc(-c2cnccn2)o1	< 1.2	< 1.2	< 1.2	< 1.2	< 1.2	< 1.2	< 1.2	–	–	–	–	–	–	–	–
O=c1oc(-c2cnccn2)nn1Cc1c(Cl)cccc1Cl	< 1.2	< 1.2	< 1.2	< 1.2	< 1.2	< 1.2	< 1.2	–	–	–	–	–	–	–	–
Clc1cccc(Cl)c1CSc1nnc(-c2cnccn2)o1	> 1.2	> 1.2	< 1.2	> 1.2	> 1.2	< 1.2	> 1.2	–	2.07	1340	–	–	–	> 2	–

Structure (SMILES)	fold change (FC) [1]	fold change (FC) [2]	fold change (FC) [3]	fold change (FC) [4]	fold change (FC) [5]	fold change (FC) [6]	fold change (FC) [7]	Activity [8]	fold change (FC) [9]	EC50 [10] [nM]	Activity [11]	Activity [12]	Activity [13]	fold change (FC) [14]	solubility kinetic at 24 h [15] [µM]
Brc1ccc(Br)c(CSc2nnc(-c3cnccn3)o2)c1	< 1.2	> 1.2	< 1.2	> 1.2	< 1.2	< 1.2	> 1.2	–	1.9	9900	–	–	–	–	–
N#Cc1ccccc1CSc1nnc(-c2cnccn2)o1	–	< 1.2	–	–	–	–	< 1.2	–	–	–	–	–	–	–	–
Clc1ccccc1CSc1nnc(-c2ccc[nH]2)o1	< 1.2	< 1.2	< 1.2	< 1.2	< 1.2	< 1.2	< 1.2	–	–	–	–	–	–	–	–
Brc1ccccc1CSc1nnc(-c2cnccn2)o1	–	< 1.2	–	–	–	–	< 1.2	–	–	–	–	–	–	–	–
Ic1ccccc1CSc1nnc(-c2cnccn2)o1	–	< 1.2	–	–	–	–	< 1.2	–	–	–	–	–	–	–	–
Clc1cccc(Cl)c1CSc1nnc(-c2ccc[nH]2)o1	< 1.2	< 1.2	< 1.2	< 1.2	< 1.2	< 1.2	< 1.2	–	–	–	–	–	–	–	–
Fc1cccc(Cl)c1CSc1nnc(-c2cnccn2)o1	> 1.2	< 1.2	< 1.2	> 1.2	< 1.2	< 1.2	> 1.2	–	1.55	1090	–	–	–	–	–
Clc1ccccc1CSc1nnc(-c2cnccn2)[nH]1	–	< 1.2	–	–	–	–	< 1.2	inactive	–	–	–	–	–	–	–
Clc1cccc(Br)c1CSc1nnc(-c2cnccn2)o1	> 1.2	< 1.2	> 1.2	> 1.2	> 1.2	< 1.2	> 1.2	–	2.9	1040	–	–	–	> 2	–
O=C([O-])Cc1ccccc1Nc1c(Cl)cccc1Cl.[Na+] [DICLOFENAC SODIUM]	–	–	–	–	–	–	–	–	–	–	–	–	–	–	205
c1ccc(CSc2nnc(-c3cnccn3)o2)cc1	–	< 1.2	–	–	–	–	< 1.2	–	–	–	–	–	–	–	–
Cc1ccccc1CSc1nnc(-c2cnccn2)o1	–	< 1.2	–	–	–	–	< 1.2	–	–	–	–	–	–	–	–
Clc1ccc(CSc2nnc(-c3cnccn3)o2)c(Cl)c1	–	–	–	–	–	< 1.2	< 1.2	–	–	–	–	–	–	–	–
FC(F)(F)c1ccc(C(F)(F)F)c(CSc2nnc(-c3cnccn3)o2)c1	> 1.2	> 1.2	< 1.2	> 1.2	> 1.2	< 1.2	> 1.2	–	1.68	1000	inactive	–	–	–	–
CC/C(=C(/CC)c1ccc(O)cc1)c1ccc(O)cc1 [DIETHYLSTILBESTROL]	–	–	–	–	–	–	–	–	–	–	–	–	–	–	14.4 (≈ 3.85 µg/mL)
O=c1oc(-c2cnccn2)nn1Cc1ccccc1Cl	< 1.2	< 1.2	< 1.2	< 1.2	< 1.2	< 1.2	< 1.2	–	–	–	–	–	–	–	–
Brc1cccc(Br)c1CSc1nnc(-c2cnccn2)o1	> 1.2	< 1.2	> 1.2	> 1.2	> 1.2	< 1.2	> 1.2	–	2.5	2100	–	–	–	> 2	–

Source: ChEMBL document CHEMBL5506036, “Exploring the Structural Attributes of Yoda1 for the Development of New-Generation Piezo1 Agonist Yaddle1 as a Vaccine Adjuvant Targeting Optimal T Cell Activation” (J Med Chem, 2024)
